From PubChem BioAssay AID248 (DTP/NCI, 2004)
“And” between values parts separate entries of the source, which are not always exact repeats. Identical values can stand only once. Toxic doses and inconclusive results are not listed. No stated cut-off is given here; in the data, active means T/C of 150% or more; inactive means T/C below 125%.

Tested on: L1210 leukemia ip in BDF1 mice, survival T/C
Assay: NCI In Vivo Anticancer Drug Screen. Data for tumor model L1210 Leukemia (intraperitoneal) in B6D2F1 (BDF1) mice
Settings: endpoint: mean survival time, higher = longer survival
Method in brief: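 Transplantable tumor model; survival measured in treated vs vehicle control mice. Value = treated/control.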

[1] = dose: 75.0 mg/kg/injection, schedule: Q01DX001 (ip), vehicle: other
[2] = dose: 100.0 mg/kg/injection, schedule: Q04DX002 (ip), vehicle: Klucel (hydroxypropylcellulose) (HPC)
[3] = dose: 200.0 mg/kg/injection, schedule: Q04DX002 (ip), vehicle: Klucel (hydroxypropylcellulose) (HPC)
[4] = dose: 400.0 mg/kg/injection, schedule: Q04DX002 (ip), vehicle: Klucel (hydroxypropylcellulose) (HPC)
[5] = dose: 100.0 mg/kg/injection, schedule: Q01DX009 (ip), vehicle: saline with Tween-80
[6] = dose: 200.0 mg/kg/injection, schedule: Q01DX009 (ip), vehicle: saline with Tween-80
[7] = dose: 100.0 mg/kg/injection, schedule: Q04DX003 (ip), vehicle: saline with Tween-80
[8] = dose: 200.0 mg/kg/injection, schedule: Q04DX003 (ip), vehicle: saline with Tween-80
[9] = dose: 400.0 mg/kg/injection, schedule: Q04DX003 (ip), vehicle: saline with Tween-80
[10] = dose: 400.0 mg/kg/injection, schedule: Q01DX009 (ip), vehicle: saline with Tween-80
[11] = dose: 100.0 mg/kg/injection, schedule: Q01DX001 (ip), vehicle: carboxymethylcellulose (CMC)
[12] = dose: 200.0 mg/kg/injection, schedule: Q01DX001 (ip), vehicle: carboxymethylcellulose (CMC)

Measured: T/C

CC(=O)Nc1cc(C)c(Cl)cc1Cl
inactive: dose: 31.25 mg/kg/injection, schedule: Q01DX009 (ip), vehicle: saline 103 % of control | dose: 62.5 mg/kg/injection, schedule: Q01DX009 (ip), vehicle: saline 103 % of control | dose: 100.0 mg/kg/injection, schedule: Q04DX003 (ip), vehicle: saline 100 % of control | dose: 125.0 mg/kg/injection, schedule: Q01DX009 (ip), vehicle: saline 102 % of control | dose: 200.0 mg/kg/injection, schedule: Q04DX003 (ip), vehicle: saline 105 % of control | dose: 400.0 mg/kg/injection, schedule: Q04DX003 (ip), vehicle: saline 101 % of control

Cc1c(CCO)c(=O)n2n1CCCC2
inactive: [1] 108 % of control | dose: 150.0 mg/kg/injection, schedule: Q01DX001 (ip), vehicle: other 100 % of control

Cc1cnc(N/N=C/c2ccccc2)nc1-c1ccccc1O
inactive: [2] 103 % of control | [3] 100 % of control | [4] 92 % of control

Cc1ccc(N=C=S)cc1F
inactive: [1] 95 % of control

CC12CC3(O)OC(O1)C1(COC(=O)c4ccccc4)C3CC21OC1OC(CO)C(O)C(O)C1O (centres undefined)
inactive: dose: 100.0 mg/kg/injection, schedule: Q04DX002 (ip), vehicle: saline 107 % of control | dose: 200.0 mg/kg/injection, schedule: Q04DX002 (ip), vehicle: saline 107 % of control | dose: 400.0 mg/kg/injection, schedule: Q04DX002 (ip), vehicle: saline 114 % of control

CCC(=O)Nc1cccc(OC(=O)NC(C)C)c1
inactive: [5] 95 % of control | [6] 90 % of control

ClCCNCc1ccc(Nc2ccnc3cc(Cl)ccc23)cc1
inactive: dose: 75.0 mg/kg/injection, schedule: Q01DX001 (ip), vehicle: carboxymethylcellulose (CMC) 103 % of control

CCCCCCCCCCCCCCCCC(C(=O)OCC)C(=O)c1ccccc1 (centres undefined)
inactive: [7] 95 % of control | [8] 95 % of control | [9] 91 % of control

CC(=O)N1c2cc3ccccc3cc2N(C(C)=O)c2cc3ccccc3cc21
inactive: dose: 100.0 mg/kg/injection, schedule: Q01DX001 (ip), vehicle: acetone 92 % of control | [5] 103 % of control | dose: 200.0 mg/kg/injection, schedule: Q01DX001 (ip), vehicle: acetone 90 % of control | [6] 106 % of control | dose: 400.0 mg/kg/injection, schedule: Q01DX001 (ip), vehicle: acetone 88 % of control | [10] 95 % of control

C[C@]12C[C@H](O)[C@H]3[C@@H](CCC4=CC(=O)CC[C@@]43C)[C@@H]1CC[C@@H]2C(=O)CO
inactive: dose: 25.0 mg/kg/injection, schedule: Q01DX009 (sc), vehicle: steriod suspending solution 101 % of control | dose: 25.0 mg/kg/injection, schedule: Q01DX010 (sc), vehicle: steriod suspending solution 102 % of control | dose: 50.0 mg/kg/injection, schedule: Q01DX009 (sc), vehicle: steriod suspending solution 95 % of control and 103 % of control | dose: 50.0 mg/kg/injection, schedule: Q01DX010 (sc), vehicle: steriod suspending solution 104 % of control | dose: 100.0 mg/kg/injection, schedule: Q01DX009 (sc), vehicle: steriod suspending solution 94 % of control and 107 % of control | dose: 100.0 mg/kg/injection, schedule: Q01DX010 (sc), vehicle: steriod suspending solution 102 % of control | dose: 200.0 mg/kg/injection, schedule: Q01DX009 (sc), vehicle: steriod suspending solution 105 % of control and 113 % of control | dose: 200.0 mg/kg/injection, schedule: Q01DX010 (sc), vehicle: steriod suspending solution 102 % of control

CNC(=O)Nc1cc2ccccc2o1
inactive: [7] 101 % of control | [8] 92 % of control | [9] 92 % of control

O=c1c2[nH]cnc2nnn1CCc1ccccc1
inactive: dose: 100.0 mg/kg/injection, schedule: Q01DX001 (ip), vehicle: other 94 % of control | dose: 200.0 mg/kg/injection, schedule: Q01DX001 (ip), vehicle: other 93 % of control | dose: 400.0 mg/kg/injection, schedule: Q01DX001 (ip), vehicle: other 91 % of control

CCCCCCCCCCCCCCCCCCN1C(=O)C2C(C1=O)C1(Cl)C(Cl)=C(Cl)C2(Cl)C1(Cl)Cl (centres undefined)
inactive: [7] 96 % of control | [8] 93 % of control

CCOC(=O)c1c(-c2ccccc2)csc1NC(=O)c1ccccc1
inactive: dose: 50.0 mg/kg/injection, schedule: Q04DX003 (ip), vehicle: saline with Tween-80 92 % of control | [7] 90 % of control | [8] 89 % of control | [9] 90 % of control

O=[N+]([O-])c1cc(S(=O)(=O)F)ccc1O
inactive: dose: 5.0 mg/kg/injection, schedule: Q01DX001 (ip), vehicle: other 112 % of control | dose: 10.0 mg/kg/injection, schedule: Q01DX001 (ip), vehicle: other 97 % of control | dose: 20.0 mg/kg/injection, schedule: Q01DX001 (ip), vehicle: other 95 % of control | dose: 40.0 mg/kg/injection, schedule: Q01DX001 (ip), vehicle: other 101 % of control | dose: 80.0 mg/kg/injection, schedule: Q01DX001 (ip), vehicle: other 106 % of control

COC1OC2COc3ccccc3OC2C2NC12 (centres undefined)
inactive: [2] 98 % of control | [3] 105 % of control | [4] 102 % of control

C=CCCCCCCCCC(=O)NC[n+]1cccc(O)c1
inactive: [7] 87 % of control

Cc1cc(-c2nnc(-c3ccc(O)c(C)c3)nn2)ccc1O
inactive: [5] 94 % of control | [6] 94 % of control | [10] 91 % of control

NC(=O)NNC(O)(C(F)(F)F)C(F)(F)F
inactive: [11] 103 % of control | [12] 108 % of control

COC(/C=C/c1ccccc1)=N\S(=O)(=O)c1ccccc1
inactive: dose: 50.0 mg/kg/injection, schedule: Q01DX001 (ip), vehicle: Klucel (hydroxypropylcellulose) (HPC) 98 % of control | dose: 100.0 mg/kg/injection, schedule: Q01DX001 (ip), vehicle: Klucel (hydroxypropylcellulose) (HPC) 100 % of control | dose: 200.0 mg/kg/injection, schedule: Q01DX001 (ip), vehicle: Klucel (hydroxypropylcellulose) (HPC) 107 % of control

O=C(O)C(F)(F)C(F)(F)C(=O)Nc1cc([N+](=O)[O-])ccc1F
inactive: dose: 100.0 mg/kg/injection, schedule: Q01DX001 (ip), vehicle: saline 93 % of control | dose: 200.0 mg/kg/injection, schedule: Q01DX001 (ip), vehicle: saline 93 % of control | dose: 400.0 mg/kg/injection, schedule: Q01DX001 (ip), vehicle: saline 93 % of control

CC12CC3CC(C)(C1)CC(O)(C3)C2
inactive: dose: 50.0 mg/kg/injection, schedule: Q01DX001 (ip), vehicle: carboxymethylcellulose (CMC) 101 % of control | [11] 98 % of control | [12] 92 % of control

N#CSCC(=O)c1ccccc1
inactive: dose: 3.0 mg/kg/injection, schedule: Q01DX009 (ip), vehicle: Klucel (hydroxypropylcellulose) (HPC) 104 % of control | dose: 6.0 mg/kg/injection, schedule: Q01DX009 (ip), vehicle: Klucel (hydroxypropylcellulose) (HPC) 101 % of control | dose: 12.0 mg/kg/injection, schedule: Q01DX001 (ip), vehicle: saline 105 % of control | dose: 12.0 mg/kg/injection, schedule: Q01DX009 (ip), vehicle: Klucel (hydroxypropylcellulose) (HPC) 107 % of control | dose: 12.0 mg/kg/injection, schedule: Q04DX003 (ip), vehicle: saline 104 % of control | dose: 25.0 mg/kg/injection, schedule: Q01DX001 (ip), vehicle: saline 113 % of control | dose: 25.0 mg/kg/injection, schedule: Q04DX003 (ip), vehicle: saline 106 % of control | dose: 50.0 mg/kg/injection, schedule: Q01DX001 (ip), vehicle: saline 97 % of control | dose: 50.0 mg/kg/injection, schedule: Q04DX003 (ip), vehicle: saline 101 % of control
